Data on 5 compounds can be found in ChEMBL document CHEMBL2321675, “Irreversible inhibitors of cysteine proteases” (ACS Med Chem Lett, 2013).

One assay has as its target T1, Caspase-4 (Homo sapiens, UniProt P49662).
T1 sequence (P49662 whole entry): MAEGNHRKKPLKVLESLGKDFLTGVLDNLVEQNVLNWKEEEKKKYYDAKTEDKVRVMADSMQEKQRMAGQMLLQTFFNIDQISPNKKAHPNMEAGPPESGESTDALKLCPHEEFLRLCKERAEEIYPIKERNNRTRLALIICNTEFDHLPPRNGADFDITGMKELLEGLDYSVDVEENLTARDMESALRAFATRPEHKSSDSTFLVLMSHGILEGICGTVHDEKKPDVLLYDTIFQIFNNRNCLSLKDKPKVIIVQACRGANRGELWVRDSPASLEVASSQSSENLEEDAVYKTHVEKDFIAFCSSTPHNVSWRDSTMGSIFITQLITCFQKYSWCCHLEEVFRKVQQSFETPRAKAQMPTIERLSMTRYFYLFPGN
Briefly: Inhibition of caspase-4 (unknown origin).

The target of another assay is T2, Caspase-1 (Homo sapiens, UniProt P29466).
T2 sequence (P29466 whole entry): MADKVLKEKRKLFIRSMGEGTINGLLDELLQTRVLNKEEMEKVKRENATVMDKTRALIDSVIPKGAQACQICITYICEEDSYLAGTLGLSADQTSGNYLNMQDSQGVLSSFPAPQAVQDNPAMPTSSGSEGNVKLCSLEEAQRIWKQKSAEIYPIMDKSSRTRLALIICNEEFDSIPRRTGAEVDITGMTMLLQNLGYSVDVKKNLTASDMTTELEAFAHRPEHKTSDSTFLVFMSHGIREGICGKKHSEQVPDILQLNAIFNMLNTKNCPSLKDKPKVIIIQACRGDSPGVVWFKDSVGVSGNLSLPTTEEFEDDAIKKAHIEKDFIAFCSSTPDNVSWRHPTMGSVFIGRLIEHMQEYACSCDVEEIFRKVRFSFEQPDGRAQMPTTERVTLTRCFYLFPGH
As to the kind of experiment: Inhibition of caspase-1 (unknown origin).

The target of the next assay is T3, Caspase-10 (Homo sapiens, UniProt Q92851).
T3 sequence (Q92851 whole entry): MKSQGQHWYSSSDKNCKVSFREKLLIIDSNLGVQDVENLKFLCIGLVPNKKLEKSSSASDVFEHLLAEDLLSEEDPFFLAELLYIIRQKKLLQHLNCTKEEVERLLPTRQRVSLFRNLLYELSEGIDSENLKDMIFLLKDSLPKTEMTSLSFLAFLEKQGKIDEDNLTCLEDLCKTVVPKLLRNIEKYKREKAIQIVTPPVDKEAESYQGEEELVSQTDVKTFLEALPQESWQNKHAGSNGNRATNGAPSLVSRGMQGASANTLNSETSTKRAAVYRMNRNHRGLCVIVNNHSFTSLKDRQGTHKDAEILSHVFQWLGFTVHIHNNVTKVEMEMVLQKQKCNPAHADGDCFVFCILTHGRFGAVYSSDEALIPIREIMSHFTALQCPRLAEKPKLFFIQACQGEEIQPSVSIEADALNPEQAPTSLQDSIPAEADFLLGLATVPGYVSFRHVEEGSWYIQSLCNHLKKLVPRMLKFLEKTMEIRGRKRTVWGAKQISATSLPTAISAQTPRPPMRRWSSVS
Briefly: Inhibition of caspase-10 (unknown origin).

The next assay deals with T4, Caspase-7 (Homo sapiens, UniProt P55210).
T4 sequence (P55210 whole entry): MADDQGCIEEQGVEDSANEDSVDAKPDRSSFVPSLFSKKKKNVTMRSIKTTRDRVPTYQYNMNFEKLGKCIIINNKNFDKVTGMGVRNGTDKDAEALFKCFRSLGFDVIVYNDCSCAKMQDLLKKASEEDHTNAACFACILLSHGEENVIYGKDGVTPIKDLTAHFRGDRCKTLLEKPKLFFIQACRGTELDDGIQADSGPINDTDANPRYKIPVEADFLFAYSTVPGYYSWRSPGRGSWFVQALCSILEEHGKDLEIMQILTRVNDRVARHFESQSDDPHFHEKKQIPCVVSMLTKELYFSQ
Briefly: Inhibition of caspase-7 (unknown origin).

In another assay the target is T5, Caspase-2 (Homo sapiens, UniProt P42575).
T5 sequence (P42575 whole entry): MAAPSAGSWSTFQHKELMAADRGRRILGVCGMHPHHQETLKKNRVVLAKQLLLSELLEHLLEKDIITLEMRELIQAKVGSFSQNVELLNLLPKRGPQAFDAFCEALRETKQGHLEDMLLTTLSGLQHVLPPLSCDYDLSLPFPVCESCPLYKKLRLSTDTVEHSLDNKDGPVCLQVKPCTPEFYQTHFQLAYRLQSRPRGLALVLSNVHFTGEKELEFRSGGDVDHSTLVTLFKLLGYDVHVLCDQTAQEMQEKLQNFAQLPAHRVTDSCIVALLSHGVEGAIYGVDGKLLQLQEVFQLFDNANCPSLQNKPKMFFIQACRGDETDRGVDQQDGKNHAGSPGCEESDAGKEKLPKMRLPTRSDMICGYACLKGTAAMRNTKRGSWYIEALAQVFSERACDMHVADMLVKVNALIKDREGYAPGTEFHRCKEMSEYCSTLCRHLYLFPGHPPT
As to the kind of experiment: Inhibition of caspase-2 (unknown origin).

In another assay the target is T6, Caspase-6 (Homo sapiens, UniProt P55212).
T6 sequence (P55212 whole entry): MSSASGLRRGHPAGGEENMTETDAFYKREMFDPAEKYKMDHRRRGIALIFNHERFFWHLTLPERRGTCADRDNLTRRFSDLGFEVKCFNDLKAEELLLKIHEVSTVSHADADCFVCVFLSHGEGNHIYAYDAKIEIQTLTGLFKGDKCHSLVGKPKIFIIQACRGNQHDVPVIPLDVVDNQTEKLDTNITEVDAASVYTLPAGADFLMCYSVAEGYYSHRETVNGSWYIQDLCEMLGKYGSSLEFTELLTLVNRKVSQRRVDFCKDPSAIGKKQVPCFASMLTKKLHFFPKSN
As to the kind of experiment: Inhibition of caspase-6 (unknown origin).

The target in another assay is T7, Caspase-3 (Homo sapiens, UniProt P42574).
T7 sequence (P42574 whole entry): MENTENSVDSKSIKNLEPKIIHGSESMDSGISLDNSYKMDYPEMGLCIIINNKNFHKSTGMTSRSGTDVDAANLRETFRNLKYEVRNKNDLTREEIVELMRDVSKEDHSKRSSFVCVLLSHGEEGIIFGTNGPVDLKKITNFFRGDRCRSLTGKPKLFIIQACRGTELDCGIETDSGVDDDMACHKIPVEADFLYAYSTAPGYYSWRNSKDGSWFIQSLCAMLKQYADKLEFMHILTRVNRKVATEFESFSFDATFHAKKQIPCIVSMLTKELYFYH
Briefly: Inhibition of caspase-3 (unknown origin).

A further assay deals with T8, Caspase-5 (Homo sapiens, UniProt P51878).
T8 sequence (P51878 whole entry): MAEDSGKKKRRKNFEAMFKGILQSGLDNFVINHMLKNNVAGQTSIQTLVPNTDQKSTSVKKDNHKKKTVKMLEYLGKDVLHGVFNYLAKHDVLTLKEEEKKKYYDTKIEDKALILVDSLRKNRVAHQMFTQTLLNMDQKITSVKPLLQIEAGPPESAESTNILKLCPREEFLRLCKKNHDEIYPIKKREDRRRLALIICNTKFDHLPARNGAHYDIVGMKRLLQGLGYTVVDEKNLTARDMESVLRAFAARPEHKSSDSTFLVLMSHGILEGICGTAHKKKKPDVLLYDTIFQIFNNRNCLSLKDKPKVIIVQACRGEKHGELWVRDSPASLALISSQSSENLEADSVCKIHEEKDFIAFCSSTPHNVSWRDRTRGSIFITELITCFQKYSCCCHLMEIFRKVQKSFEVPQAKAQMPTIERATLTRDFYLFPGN
As to the kind of experiment: Inhibition of caspase-5 (unknown origin).

The target of a further assay is Caspase-8 (Homo sapiens, UniProt Q14790). Briefly: Inhibition of caspase-8 (unknown origin).
The next assay addresses T9, Caspase-9 (Homo sapiens, UniProt P55211).
T9 sequence (P55211 whole entry): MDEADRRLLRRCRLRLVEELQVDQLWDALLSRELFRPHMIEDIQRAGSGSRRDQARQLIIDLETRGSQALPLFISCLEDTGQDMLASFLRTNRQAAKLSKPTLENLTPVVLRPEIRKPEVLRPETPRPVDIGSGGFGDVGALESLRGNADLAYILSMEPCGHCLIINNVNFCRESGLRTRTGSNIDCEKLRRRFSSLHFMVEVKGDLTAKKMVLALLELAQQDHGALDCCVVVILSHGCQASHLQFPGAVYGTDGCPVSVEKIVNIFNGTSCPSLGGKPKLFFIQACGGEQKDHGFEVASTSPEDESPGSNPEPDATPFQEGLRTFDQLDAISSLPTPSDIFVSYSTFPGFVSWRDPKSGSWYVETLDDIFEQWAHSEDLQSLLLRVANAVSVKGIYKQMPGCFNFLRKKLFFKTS
Briefly: Inhibition of caspase-9 (unknown origin).

Chain of Caspase-8 (Q14790 217-374 limits assumed): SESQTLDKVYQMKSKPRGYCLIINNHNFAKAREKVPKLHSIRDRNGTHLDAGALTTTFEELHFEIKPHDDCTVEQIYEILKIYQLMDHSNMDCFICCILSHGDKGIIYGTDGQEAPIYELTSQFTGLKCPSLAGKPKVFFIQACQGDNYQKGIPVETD
Chain of Caspase-8 (Q14790 385-479 limits assumed): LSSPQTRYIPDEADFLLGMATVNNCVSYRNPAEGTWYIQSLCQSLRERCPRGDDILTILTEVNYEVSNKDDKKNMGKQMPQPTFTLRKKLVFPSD

As to `CC(C)(C)[C@@H](NC(=O)c1ccc(N)c(Cl)c1)C(=O)N1CCC[C@H]1C(=O)N[C@H](/C=C/S(C)(=O)=O)CC(=O)O`, the IC50 (usually the point on the concentration scale where inhibition reaches its midpoint) on Caspase-4 was 0.09 µM; on Caspase-1 it was 0.02 µM; at Caspase-10, 2.67 µM; against Caspase-7, 24.5 µM; against Caspase-2, over 100 µM; against Caspase-6, over 100 µM. Further, the IC50 against Caspase-3 is over 100 µM; at Caspase-5, 0.56 µM; on Caspase-8, 12.9 µM; at Caspase-9 it was 2.3 µM.

Consider `CC(C)(C)[C@H](NC(=O)[C@H](CC(=O)O)NC(=O)OCc1ccccc1)C(=O)N1CC[C@H]1C(=O)N[C@H](/C=C/S(C)(=O)=O)CC(=O)O`, for which the IC50 at Caspase-4 is 5.6 µM; against Caspase-1, 13.2 µM; on Caspase-10, 0.42 µM; at Caspase-7 it was 0.5 µM; on Caspase-2, 13.1 µM; at Caspase-6 it was over 100 µM. The IC50 came out at 0.28 µM on Caspase-3, 35.2 µM against Caspase-5, 4.1 µM against Caspase-8 and 1.1 µM against Caspase-9.

As for `CC[C@H](C)[C@H](NC(=O)[C@H](CCC(N)=O)NC(=O)[C@@H](NC(=O)OCc1ccccc1)C(C)C)C(=O)N[C@H](/C=C/S(C)(=O)=O)CC(=O)O`, the IC50 on Caspase-4 is 0.37 µM; on Caspase-1, 2.7 µM; against Caspase-10, 0.13 µM; on Caspase-7, over 100 µM; at Caspase-2, over 100 µM; at Caspase-6, 0.6 µM. Also, the IC50 stood at 6.9 µM on Caspase-3, 19.5 µM on Caspase-5, 0.6 µM against Caspase-8 and 0.8 µM against Caspase-9.

On to `CC[C@H](C)[C@H](NC(=O)[C@H](CCC(N)=O)NC(=O)[C@H](Cc1c[nH]c2ccccc12)NC(=O)OCc1ccccc1)C(=O)N[C@H](/C=C/S(C)(=O)=O)CC(=O)O`, for which the half-inhibitory concentration (IC50) on Caspase-4 was 0.18 µM; at Caspase-1 it was 0.026 µM; at Caspase-10 it was 3.3 µM; on Caspase-7, 23.7 µM; against Caspase-2 it was over 100 µM; at Caspase-6, 100 µM. For the same compound, the IC50 worked out at 6.5 µM on Caspase-3, 0.75 µM on Caspase-5, 5.93 µM on Caspase-8 and 1.74 µM against Caspase-9.

Regarding `CCOC(=O)/C=C/[C@H](CC(=O)O)NC(=O)[C@@H](NC(=O)[C@@H](NC(=O)[C@H](CC(=O)O)NC(=O)OCc1ccccc1)c1ccccc1)C(C)C`, the IC50 against Caspase-2, on Caspase-6 and on Caspase-5 was over 100 µM in each case.
